This is an account of results in US20240425812A1, “HYPOVENTILATION PHYSICAL MODELS AND APPLICATIONS THEREOF” (The University of Hong Kong, priority 2023, published 2024).

One assay deals with HBSO neurons. Briefly: Multi-electrode array (MEA) analysis of dissociated day 60 HBSO neurons. The class given is cell-based, human. The following applies: 10 μM, applied immediately before recording. As to the method: The functionality of HBSO neurons, particularly their responses to hypercapnia, is further assessed using multi-electrode array (MEA) analyses. Briefly, Day 60 HBSOs arc dissociated with Papain Dissociation System (Worthington, LK003150) following the manufacturer's protocol. In brief, the HBSOs are digested with the papain solution in 37° C. incubator for 30 min with continuous shaking at 90 r.p.m. and then triturated with P1000 pipette. The triturated HBSOs are further digested in 37° C. incubator for an additional 10 min and then filtered through 40 μm cell strainer (Corning, 352340) to remove undigested cell debris. The dissociated cells are collected by centrifuging at 300×g for 5 min at room temperature. The cells are then resuspended with DNase/ovomucoid inhibitor solution to stop the digestion. […] MEA recordings are measured at 37° C. with 5-8% CO2 in a Maestro Edge MEA System (Axion Biosystems) to detect spontaneous firing of spikes. The MEA plate is pre-equilibrated in the MEA system for at least 5 min before measurement and each treatment is recorded for 5-10 min to calculate the mean spike firing rate. […] The MEA recordings are analyzed using the Neural Module of AxIS Navigator 1.5 software and the Neural Metric Tool software (Axion Biosystems). […]

Another assay deals with HBSOs. Briefly: HBSO differentiation with WNT antagonist added on days 3-6 (growth, RT-qPCR of patterning markers at day 20). In kind it is cell-based, human. On the procedure: To generate HSBOs, hPSCs are dissociated into single cell suspension by treating with 0.5 mM EDTA solution in DPBS and then Accutase as described above. 2.7×10^6 cells are seeded to a well of AggreWell800 24-well plate (STEMCELL Technologies, 34815) which contained 300 microwells per well (i.e. 9,000 cells per microwell). The cells are kept in mTeSR1 with 10 μM Y-27632 overnight in 37° C. incubator for the spheroid formation and they are marked as day 0 at this stage. At day 1, the spheroids from one well of Aggre Well800 are split into 3 wells of 6-well ultra-low-attachment plate containing Neural Induction Medium (DMEM/F12, 1% N2 supplement (v/v), 1% GlutaMAX supplement (v/v), 1% MEM-NEAA (v/v) and 1 μg ml^−1 Heparin) supplemented with BMP inhibitor LDN-193189 (1 μM) and TGF-β inhibitor SB431542 (10 μM). […]
Total RNA from HCOs and HBSOs are extracted by RNeasy Mini Kit (Qiagen) and the RNA concentrations are determined by Nanodrop 1000 Spectrophotometer (Thermo Fisher Scientific). […] Fluorescence is measured by ViiA 7 Real-Time PCR System (Thermo Fisher Scientific) at the end of each cycle. […]

Regarding `NCCc1c[nH]c2ccc(O)cc12` [5-HT, serotonin], the “firing of HBSO neurons” value with HBSO neurons (FIG. 1J) is “capable of enhancing the firing”.

Take `O=C(Nc1cccc2cccnc12)c1ccc(N2C(=O)[C@@H]3[C@H](C2=O)[C@@H]2C=C[C@H]3C2)cc1` [IWR1-endo]: the “favoring the dB2 domain formation (PHOX2B expression)” value with HBSOs (1 μM or 10 μM, day 20 RT-qPCR, FIG. 1D) is on record as “does not provide additional benefits”. The “growth of the HBSOs” value in the assay with HBSOs (10 μM) is on record as “inhibited the growth”.

`CC1CCN(CC[C@H]2CCCN2S(=O)(=O)c2cccc(O)c2)CC1` [SB269970]: the “hypercapnia responses of HBSO neurons” value in the assay on HBSO neurons (FIG. 1K) was “counteraction of these responses”.
